Measured values as given in patent US10526292B2 (Parion Sciences, Inc., priority 2012, dated 2020).

The compounds below were run on ExLac rats (assay: Tear volume in rat model of dry eye disease (lacrimal gland excision, ExLac Model)). Details: 5 μl test article solution per eye, tear volume by ZoneQuick thread over 6 h.
Format: in vivo, Sprague Dawley rats
Protocol: The effects of compounds on tear volume was assessed in a rat model of dry eye disease in which Sprague Dawley rats undergo surgical lacrimal gland excision (ExLac Model) to reduce normal tear volume. The lacrimal excision reduces normal tear volume by ˜50% (Table 2).
Both the ipsilateral and contralateral eyes were dosed with 5 μl of test article solution. Tear production was measured using the ZoneQuick cotton thread with impregnated phenol red dye. The folded end of the thread was held in the lateral-ventral conjunctival cul-de-sac for 10 seconds. The length of tear wicking onto the thread was determined by measuring the length of the thread that changes color from yellow to red. Use of a stereomicroscope was assist in the accurate measurement (recorded in millimeters) of the wicking/color change. Tear volume was assessed pre-dose, and 15, 30, 60, 120, and 360 minute post-dose. For reference, the effect of a saline vehicle is shown for ExLac rats and normal (no lacrimal excision surgery) rats.

Compared with `N=C(N)NCCCC[C@H](N)C(=O)NCCCN(CCCN)CCOc1ccc(CCCCNC(=N)NC(=O)c2nc(Cl)c(N)nc2N)cc1` [Compound 51, (S)-3,5-diamino-N—(N-(4-(4-(2-((3-(2-amino-6-guanidinohexanamido)propyl)(3-aminopropyl)amino)ethoxy)phenyl)butyl)carbamimidoyl)-6-chloropyrazine-2-carboxamide], `N=C(N)NCCCC[C@@H](N)C(=O)NCCCN(CCCNC(=O)[C@@H](N)CCCCNC(=N)N)CCOc1ccc(CCCCNC(=N)NC(=O)c2nc(Cl)c(N)nc2N)cc1` [Compound 90, 3,5-diamino-N—(N-(4-(4-(2-((3-((R)-2-amino-6-guanidinohexanamido)propyl)(3-((S)-2-amino-6-guanidinohexanamido)propyl)amino)ethoxy)phenyl)butyl)carbamimidoyl)-6-chloropyrazine-2-carboxamide] is higher in “6 h Ocular Hydration (AUC0-6)” value: 38.0 for the first, 49.0 for the second.

Compared with `N=C(N)NCCCC[C@H](NC[C@H](O)[C@@H](O)[C@H](O)[C@H](O)CO)C(=O)NCCCN(CCCNC(=O)[C@H](CCCCNC(=N)N)NC[C@H](O)[C@@H](O)[C@H](O)[C@H](O)CO)CCOc1ccc(CCCCNC(=N)NC(=O)c2nc(Cl)c(N)nc2N)cc1` [Compound 42, (S,R,R,R,2S,2′S)—N,N′-(3,3′-(2-(4-(4-(3-(3,5-diamino-6-chloropyrazine-2-carbonyl)guanidino)butyl)phenoxy)ethylazanediyl)bis(propane-3,1-diyl))bis(6-guanidino-2-((2S,3R,4R,5R)-2,3,4,5,6-pentahydroxyhexylamino)hexanamide)], `COC(=O)NC(=N)NCCCC[C@@H](N)C(=O)NCCCN(CCCNC(=O)[C@H](N)CCCCNC(=N)N)CCOc1ccc(CCCCNC(=N)NC(=O)c2nc(Cl)c(N)nc2N)cc1` [Compound 46, 3,5-diamino-N—(N-(4-(4-((R)-11-amino-17-(3-((R)-2-amino-6-guanidinohexanamido)propyl)-5-imino-3,12-dioxo-2-oxa-4,6,13,17-tetraazanonadecan-19-yloxy)phenyl)butyl)carbamimidoyl)-6-chloropyrazine-2-carboxamide] is lower in “6 h Ocular Hydration (AUC0-6)” value: 52.3 for the first, 39.9 for the second.

Compared with `N=C(NCCCC[C@H](N)C(=O)NCCCN(CCCNC(=O)[C@@H](N)CCCCNC(=N)NC(=O)c1ccccc1)CCOc1ccc(CCCCNC(=N)NC(=O)c2nc(Cl)c(N)nc2N)cc1)NC(=O)c1ccccc1` [Compound 75, N,N′-((7S,19S)-7,19-diamino-13-(2-(4-(4-(3-(3,5-diamino-6-chloropyrazine-2-carbonyl)guanidino)butyl)phenoxy)ethyl)-1,25-diimino-8,18-dioxo-2,9,13,17,24-pentaazapentacosane-1,25-diyl)dibenzamide], `N=C(N)NCCCC[C@H](N)C(=O)NCCCN(CCCNC(=O)[C@@H](N)CCCCNC(=N)N)CCCc1ccc(NC(=O)[C@@H](N)Cc2ccc(CCCCNC(=N)NC(=O)c3nc(Cl)c(N)nc3N)cc2)cc1` [Compound 145, (2S,2′S)—N,N′-(3,3′-(3-(4-((S)-2-amino-3-(4-(4-(3-(3,5-diamino-6-chloropyrazine-2-carbonyl)guanidino)butyl)phenyl)propanamido)phenyl)propylazanediyl)bis(propane-3,1-diyl))bis(2-amino-6-guanidinohexanamide)] is higher in “6 h Ocular Hydration (AUC0-6)” value: 38.2 for the first, 44.7 for the second.

`N=C(N)NCCCC[C@@H](N)C(=O)NCCCN(CCCNC(=O)[C@H](N)CCCCNC(=N)N)CCOc1ccc(CCCCNC(=N)NC(=O)c2nc(Cl)c(N)nc2N)c2c1CCCC2` [Compound 133, (2R,2′R)—N,N′-(3,3′-(2-(4-(4-(3-(3,5-diamino-6-chloropyrazine-2-carbonyl)guanidino)butyl)-5,6,7,8-tetrahydronaphthalen-1-yloxy)ethylazanediyl)bis(propane-3,1-diyl))bis(2-amino-6-guanidinohexanamide)] was tested, and the “6 h Ocular Hydration (AUC0-6)” value was 45.7.
